What was measured:
[1] = molecular target: T1, short form of the GPR120 receptor (Homo sapiens, UniProt Q5NUL3); assay: Human GPR120 DiscoveRx PathHunter Beta-Arrestin Assay, Procedure β-arrestin B (5000 cells/well); assay type: cell-based
T1 construct: host or cells: PathHunter CHO-K1 GPR120S β-Arrestin Cell Line
T1 sequence (Q5NUL3 1-361): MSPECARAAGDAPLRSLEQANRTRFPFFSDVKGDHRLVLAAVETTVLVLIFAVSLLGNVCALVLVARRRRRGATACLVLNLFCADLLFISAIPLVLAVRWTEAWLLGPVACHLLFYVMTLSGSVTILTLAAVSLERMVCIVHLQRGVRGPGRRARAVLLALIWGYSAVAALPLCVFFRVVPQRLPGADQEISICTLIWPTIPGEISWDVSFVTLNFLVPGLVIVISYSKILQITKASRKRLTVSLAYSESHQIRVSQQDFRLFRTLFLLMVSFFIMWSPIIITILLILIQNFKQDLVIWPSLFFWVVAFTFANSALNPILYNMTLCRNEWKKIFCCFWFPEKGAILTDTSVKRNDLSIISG
Summary of the method: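 PathHunter CHO-K1 cells expressing short-form GPR120 (NM_181745), seeded at 5000 cells/well, were exposed to compound for 90 min at 37 °C in HBSS/20 mM HEPES/0.1% BSA, pH 7.4. Dilutions ran 25–0.012 µM before addition to wells. β-arrestin recruitment was read by EFC β-gal luminescence, and EC50 was fitted to % activity versus positive control with Hill slope fixed at 1.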

[2] = test system: C57bl/6J Mice; assay: C57bl6 mouse OGTT; assay type: in vivo
Description: (§1) Male, C57bl/6J Mice were ordered in at 8 weeks of age from Jackson Labs. Individual mice weighed anywhere in the range of 25-30 grams on study day. The mice were fasted, with removal of food occurring at 7 am on the morning of the study. Animals were moved into the room at 10:00 am, to give them time to acclimate. Glucose (insulin syringes) was drawn up either the night before or the morning of the study. Glucose was dosed (IP) at 1.5 g/kg at 7.5 ml/kg (20% glucose straight TEKNOVA, 250 ml sterile bottle w/catalogue number G0525). Test compounds were kept spinning and were only drawn into the syringes prior to study commencement. Animals were bled via tail snip to determine basal glucose levels prior to dosing of treatments. An Ascensia BREEZE Blood Glucose Monitoring System by Bayer (using unique 10-test disks) was used for determining glucose levels. The bleeds started at approximately 12:45 pm and dosing started, at 1-minute intervals, immediately after. All groups were dosed 30 minutes prior to glucose administration at a dose volume of 10 ml/kg (the dose volume was calculated separately for each individual animal). Thirty minutes after the first dose animals were bled again for a second baseline, or T=0, and immediately dosed with glucose via an i.p. injection. The exact dose volume for glucose was also calculated separately for each individual animal. Glucose measurements were taken at −30 min prior to compound dose, at t=0 (immediately prior to glucose dose), and at 15, 30, 45, 60, 90 min post glucose dose.
(§2) Glucose values were entered into an Excel sheet and graphed in GraphPad Prism. The following were calculated from Prism: Change from −30 to 0 BSLN Glucose, Raw Glucose AUC −30 to 90 min, Delta Glucose AUC −30 to 90 min, Raw Glucose AUC 0 to 90 min, Delta Glucose AUC 0 to 90 min.
The assay design is the same as that described above for the C57bl6 mouse IPGTT. The difference is that glucose was dosed PO at 3 g/kg, 7.5 ml/kg of 40% glucose.

[3] = test system: C57bl/6J Mice; assay: GPR120 C57bl6 Mouse IPGTT; assay type: in vivo
Description: as §1, §2

| Structure (SMILES) | EC50 [1] | Dose Responses C57 OGTT ([2]; 3 mg/kg) | Dose Responses C57 OGTT ([2]; 10 mg/kg) | Dose Responses C57 OGTT ([2]; 30 mg/kg) | C57 OGTT result ([2]; 30 mg/kg, glucose PO 3 g/kg) | Dose Responses C57 IPGTT ([3]; 3 mg/kg) | Dose Responses C57 IPGTT ([3]; 10 mg/kg) | Dose Responses C57 IPGTT ([3]; 30 mg/kg) | Dose Responses C57 IPGTT ([3]; 1 mg/kg) |
| --- | --- | --- | --- | --- | --- | --- | --- | --- | --- |
| CCc1cc2cc(Cl)cc(COc3ccc(CCC(=O)O)c4c3CCC4)c2o1 [Compound 54, 3-{7-[(5-Chloro-2-ethyl-1-benzofuran-7-yl)methoxy]-2,3-dihydro-1H-inden-4-yl}propanoic acid] | 150 nM |  |  |  |  |  |  |  |  |
| CCc1cc2ccc(OC(F)F)c(COc3ccc(CCC(=O)O)c(C)c3C)c2o1 [Compound 70, 3-(4-{[6-(Difluoromethoxy)-2-ethyl-1-benzofuran-7-yl]methoxy}-2,3-dimethylphenyl)propanoic acid] | 1290 nM |  |  |  |  |  |  |  |  |
| CCc1cc2cc(F)cc(COc3ccc(CCC(=O)O)c(C)c3C)c2o1 [Compound 3, 3-{4-[(2-Ethyl-5-fluoro-1-benzofuran-7-yl)methoxy]-2,3-dimethylphenyl}propanoic acid] |  | −15% | −24% | −35% | −35 |  |  |  |  |
| Cc1cc2cc(OC(F)(F)F)cc(COc3ccc(CCC(=O)O)c(C)c3C)c2o1 [Compound 36, 3-(2,3-Dimethyl-4-{[2-methyl-5-(trifluoromethoxy)-1-benzofuran-7-yl]methoxy}phenyl)propanoic acid] | 69 nM |  |  |  |  | −7% | −36% | −46% |  |
| CCc1cc2cc(Cl)cc(COc3ccc(CCC(=O)O)c(C)c3C)c2o1 [Compound 11, 3-{4-[(5-Chloro-2-ethyl-1-benzofuran-7-yl)methoxy]-2,3-dimethylphenyl}propanoic acid] | 94 nM | −30% | −38% | −43% |  |  |  |  |  |
| CCc1cc2cc(Cl)c(C)c(COc3ccc(CCC(=O)O)c(C)c3C)c2o1 [Compound 40, 3-{4-[(5-Chloro-2-ethyl-6-methyl-1-benzofuran-7-yl)methoxy]-2,3-dimethylphenyl}propanoic acid] |  |  |  |  |  | 13% | −34% |  | −28% |
| Cc1cc2cc(F)cc(COc3ccc(CCC(=O)O)c(C)c3C)c2o1 [Compound 2, 3-{4-[(5-Fluoro-2-methyl-1-benzofuran-7-yl)methoxy]-2,3-dimethylphenyl}propanoic acid] |  | −29% | −31% | −51% |  | −20% | −27% | −53% | −3% |
| CCc1cc2cc(OC(F)(F)F)cc(COc3ccc(CCC(=O)O)c(C)c3C)c2o1 [Compound 12, 3-(4-{[2-Ethyl-5-(trifluoromethoxy)-1-benzofuran-7-yl]methoxy}-2,3-dimethylphenyl)propanoic acid] | 70 nM | 6% | −26% | −30% |  |  |  |  |  |

Reference: patent US9562053B2, “Benzo-fused heterocyclic derivatives useful as agonists of GPR120” (Janssen Pharmaceutica NV, priority 2013, dated 2017)
